Source: publication PMC11277489, “Novel Piperazine Derivatives of Vindoline as Anticancer Agents” (International Journal of Molecular Sciences, 2024)

How the values were obtained:
SiHa cell line = system: SiHa cell line; set-up: method as in PMID 32102414; conditions: cited from earlier work
[1] = system: 60 human tumor cell lines (NCI60); test: NCI60 one-dose screen (10 μM), whole panel; format: cell-based; conditions: 10 μM one-dose, NCI60

SMILES	IC50 (SiHa cell line) [nM]	antiproliferative effect (in words) [1]
CC[C@]12C=CCN3CC[C@@]4(c5ccc(OC)cc5N(C)[C@H]4[C@@](O)(C(=O)OC)[C@@H]1OC(=O)CCCN1CCN(CCCC(=O)O[C@@H]4[C@]5(CC)C=CCN6CC[C@@]7(c8ccc(OC)cc8N(C)[C@H]7[C@@]4(O)C(=O)OC)[C@@H]65)CC1)[C@@H]32 [Compound 4]	2850	–
CCC12C=CCN3CCC4(c5cc(N)c(OC)cc5N(C)C4C(O)(C(=O)OC)C1OC(C)=O)C32 (centres unmarked) [Compound 11, 10-aminovindoline]	–	a notable antiproliferative effect was not shown
